Source: US12319681B2, “Tripartite androgen receptor eliminators, methods and uses thereof” (SPG Therapeutics, Inc., priority 2017, dated 2025)

How the values were obtained:
[1] = tested on: normal Human Adult Primary Epidermal Keratinocyte cell line; assay: Keratinocyte cell viability (Trypan Blue exclusion, Example 10); conditions: keratinocytes, 1.0 nM DHT, 24 hours
Protocol: For the Keratinocyte assay, normal Human Adult Primary Epidermal Keratinocyte cell line (ATCC PCS-200-011) was maintained in EPIUFE® Medium, with 60 μM calcium (Thermo MEPISOOCA) supplemented with Human Keratinocyte Growth Supplement, 100 U/mL penicillin, and 100 μg/mL streptomycin at 37° C. with 5% C02. For experiments, cells were seeded at 70% confluence per well in 100 μL of medium in 96-well plates. […] After 16 hours, medium was removed and replaced with dosing medium.
A 5α-Androstan-17β-ol-3-one (DHT) stock solution was prepared at 1,000× in ethanol. […] Dosing medium was prepared at the time of treatment by serial diluting stock solution into medium. Ethanol concentrations in media never exceeded 0.1%. […] Negative control wells contained 100 μL medium/well with 1 μL of ethanol/mL of medium and an appropriate amount of DMSO. Each plate also contained 1.0 nM DHT with an ARE or without an ARE as a positive control. Cells were incubated 24 hours at 37° C. without CO2.
(§3) To assess for cell viability, cells were first visually examined under a phase-contrast microscope to record cell confluence, morphological changes, and presence of drug crystallization as well as to observe signs of cytotoxity such as, e.g., detachment, vacuolization, membrane degradation, or lack of phase brightness. After microscopic inspection, a Trypan Blue exclusion assay was performed to assess cell viability and cell number for each well. Each well was washed with 0.5 mL volume of PBS. 30 µL of Trypan Blue was added to each well for 5-10 minutes. Total cell number and total viable cell number will be counted from 1 number of fields per well, in triplicate.

[2] = tested on: MDA-kb2 mammary gland breast cancer cell line; assay: MDA-kb2 cell viability (Trypan Blue exclusion); conditions: MDA-kb2, 1.0 nM DHT, 24 hours
Protocol: For the MDA-kb2 assay, MDA-kb2 mammary gland breast cancer cell line was maintained in L-15 media (Gibco) supplemented with 10% FBS, 100 U/mL penicillin, 100 μg/mL streptomycin, and 0.25 μg/mL amphotericin B at 37° C., without CO2. For experiments, cells were plated at 1.0×10^4 cells (50% confluence) per well in 100 μL of medium in 96-well plates. When cells were attached (after 6 hours), medium was removed and replaced with dosing medium containing 10% charcoal stripped FBS.
A 5α-Androstan-17β-ol-3-one (DHT) stock solution was prepared at 1,000× in ethanol. Each ARE tested was prepared in DMSO. Dosing medium was prepared at the time of treatment by serial diluting stock solution into medium. Ethanol concentrations in media never exceeded 0.1%. […] Negative control wells contained 100 μL medium/well with 1 μL of ethanol/mL of medium and an appropriate amount of DMSO. Each plate also contained 1.0 nM DHT with an ARE or without an ARE as a positive control. Cells were incubated 24 hours at 37° C. without CO2.
as §3

[3] = Keratinocyte Cell Viability Assay (Example 11, 72 hours); conditions: human
Protocol: (§4) For the Keratinocyte assay, normal Human Adult Primary Epidermal Keratinocyte cell line (ATCC PCS-200-011) was maintained in EPIUFE® Medium, with 60 μM calcium (Thermo MEPISOOCA) supplemented with Human Keratinocyte Growth Supplement, 100 U/mL penicillin, and 100 μg/mL streptomycin at 37° C. with 5% C02. For experiments, cells were seeded at 70% confluence per well in 100 μL of medium in 96-well plates. Reverse transfection was done on the cells using Lipofectamine 3000 (Life Technologies) with plasmids according to manufacturer's instructions. Briefly, 0.3 μL transfection reagent per 100 ng DNA were incubated with P3000 reagent and Opti-Mem prior to addition of cells. After 16 hours, medium was removed and replaced with dosing medium.
(§5) Each ARE tested was prepared in DMSO. Dosing medium was prepared at the time of treatment by serial diluting stock solution into medium. Ethanol concentrations in media never exceeded 0.1%. […] Negative control wells contained 100 L medium/well with 1 μL of ethanol/mL of medium and an appropriate amount of DMSO. […] Cells were incubated 72 hours at 37° C. without CO2.

[4] = tested on: normal Human Adult Primary Epidermal Keratinocyte cell line; assay: as above; conditions: keratinocytes, 72 hours, 0 μM = 100
Protocol: as §4, §5

[5] = target: androgen receptor (AR) (Homo sapiens, UniProt P10275); assay: MDA-kb2 AR luciferase reporter gene assay (1.0 nM DHT); format: cell-based; conditions: MDA-kb2, 1.0 nM DHT, 24 hours, read-out: Gene Activity Reduction
Protocol: This example illustrates how to determine the inhibitory activity of an ARE disclosed herein using a cell-based androgen receptor transcriptional reporter assay using an engineered cell line.
(§1) Each ARE tested was prepared in DMSO. […] Ethanol concentrations in media never exceeded 0.1%.
(§2) To assess ARE-mediated inhibition, an AR luciferase assay was performed. After washing cells with 1×PBS, 20 μL lysis buffer (25 mM Tris/phosphate, 4 mM EGTA, 1% Triton, 10% glycerol, 2 mM DTT) was added per well, incubated for 5 minutes with gentle shaking and store at −80° C. On the day of assay, the plates were thawed to ambient temperature and 80 μL of assay buffer (25 mM glycylglycine, 15 mM MgCl2. 5 mM ATP, 0.1 mg/ml BSA) was added to each well. Plates are then processed on a microplate reader (POLARstar Omega) by injecting 100 μL of 1 mM D-luciferin per well, followed by chemiluminescence measurement of 3 seconds at onset of injection. Luciferase activity was determined, measured, and normalized to Relative Light Units (RLU). AR reporter gene activity reduction values were calculated as follows: AR reporter gene activity=1−(average signal (treatment group)/average signal (treatment group without drug).

[6] = target: T1, androgen receptor (AR) (Homo sapiens, UniProt P10275); assay: Keratinocyte AR protein level ELISA (Example 10); format: cell-based; conditions: 24 h, keratinocytes, AR protein level by ELISA, read-out: AR Reduction
T1 construct: human keratinocytes transfected with an AR luciferase reporter gene; endogenous in cells; host or cells: normal human adult primary epidermal keratinocytes (ATCC PCS-200-011)
T1 sequence (P10275 1-920): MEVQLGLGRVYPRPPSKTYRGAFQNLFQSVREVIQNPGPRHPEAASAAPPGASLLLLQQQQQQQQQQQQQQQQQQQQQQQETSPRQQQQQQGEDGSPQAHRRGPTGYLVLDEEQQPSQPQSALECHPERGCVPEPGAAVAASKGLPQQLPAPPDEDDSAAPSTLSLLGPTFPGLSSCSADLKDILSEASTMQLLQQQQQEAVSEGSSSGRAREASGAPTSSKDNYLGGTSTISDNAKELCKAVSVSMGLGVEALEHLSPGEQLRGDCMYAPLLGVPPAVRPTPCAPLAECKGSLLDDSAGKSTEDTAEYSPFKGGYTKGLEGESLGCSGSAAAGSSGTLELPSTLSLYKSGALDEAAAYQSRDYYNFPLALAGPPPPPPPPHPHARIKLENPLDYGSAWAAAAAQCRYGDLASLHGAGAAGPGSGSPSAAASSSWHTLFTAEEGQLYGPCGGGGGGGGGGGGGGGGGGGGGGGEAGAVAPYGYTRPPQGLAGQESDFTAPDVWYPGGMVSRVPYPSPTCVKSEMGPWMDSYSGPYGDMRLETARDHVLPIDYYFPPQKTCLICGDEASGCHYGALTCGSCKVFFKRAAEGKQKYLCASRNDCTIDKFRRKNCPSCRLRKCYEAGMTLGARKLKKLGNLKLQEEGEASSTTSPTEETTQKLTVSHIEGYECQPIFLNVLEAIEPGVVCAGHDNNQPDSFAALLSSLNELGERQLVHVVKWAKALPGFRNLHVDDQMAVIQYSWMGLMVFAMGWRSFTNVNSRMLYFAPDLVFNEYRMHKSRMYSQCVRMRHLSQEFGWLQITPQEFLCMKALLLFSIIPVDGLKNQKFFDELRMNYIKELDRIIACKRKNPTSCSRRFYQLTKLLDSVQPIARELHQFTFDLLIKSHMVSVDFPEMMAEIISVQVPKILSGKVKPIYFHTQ
Protocol: as §1
To assess levels of AR, an ELISA was performed.

[7] = target: T1, androgen receptor (AR); assay: Keratinocyte AR luciferase reporter gene assay (Example 10); format: cell-based; conditions: keratinocytes, 1.0 nM DHT, 24 hours, read-out: Gene Activity Reduction
Protocol: as §1, §2

O=C(CC12CC3CC(CC(C3)C1)C2)NCCOCCOCC(=O)N1CCN(c2ccc(OC[C@H]3CO[C@](Cn4ccnc4)(c4ccc(Cl)cc4Cl)O3)cc2)CC1 [SPG-005]
Cell Viability ([1]; 0.1 μM): 94%
Cell Viability ([1]; 1.0 μM): 92%
Cell Viability ([1]; 3.0 μM): 93%
Cell Viability ([1]; 10 μM): 94%
Cell Viability ([2]; 0.1 μM): 98%
Cell Viability ([2]; 1.0 μM): 98%
Cell Viability ([2]; 3.0 μM): 98%
Cell Viability ([2]; 10 μM): 98%
IC50 at 72 h [3]: 2000 nM
Cell Viability ([4]; 0.62 μM): 77.01 ± 0.64
Cell Viability ([4]; 1.85 μM): 62.57 ± 2.06
Cell Viability ([4]; 5.56 μM): 1.98 ± 8.39
Cell Viability ([4]; 16.67 μM): 0.11 ± 1.77
Cell Viability ([4]; 50 μM): 0.09 ± 6.41
Cell Viability ([4]; […]): 93.72 ± 1.69
inhibition at 0.1 µM ([5]; 0.1 μM): 9%
inhibition at 1 µM ([5]; 1.0 μM): 14%
inhibition at 3 µM ([5]; 3.0 μM): 18%
inhibition at 10 µM ([5]; 10 μM): 80%
inhibition at 0.1 µM ([6]; 0.1 μM): 12%
inhibition at 1 µM ([6]; 1.0 μM): 19%
inhibition at 3 µM ([6]; 3.0 μM): 23%
inhibition at 10 µM ([6]; 10 μM): 65%
inhibition at 0.1 µM ([7]; 0.1 μM): 21%
inhibition at 1 µM ([7]; 1.0 μM): 29%
inhibition at 3 µM ([7]; 3.0 μM): 31%
inhibition at 10 µM ([7]; 10 μM): 90%
